# Legend:
# Format in all cases: cell-based, human
# [1] = test system: WNT pathway in lesional skin from vitiligo patients; test: Ex vivo culture of lesional vitiligo skin biopsies with WNT pathway activators, RT-qPCR; details: 14 days, SKL2001 40 μM; for mRNA level of early melanoblast marker Brn2 / mRNA level of early melanoblast marker PAX3 / relative mRNA expression of LEF / relative mRNA expression of WNT family: CHIR99021 3 μM, LiCl 20 μM; for relative mRNA expression of LEF / relative mRNA expression of WNT family: stimulation every other day, n=9
# Description: (§1) Vitiligo patients (n=9) were biopsied in lesional skin area. The biopsies were stimulated in ex vivo culture during 14 days with GSK3β inhibitor: CHIR99021 (3 μM) or LiCl (20 μM) or with WNT agonist: SKL2001 (40 μM) every other day. mRNA was extracted and a RT-qPCR was performed to quantify the relative expression of LEF (A) and the pre-melanocytes markers PAX3 (B), Brn2 (C) MITF (D) and DCT (E).
# as §1, with “WNT family” for “LEF (A) and the pre-melanocytes markers PAX3 (B), Brn2 (C) MITF (D) and DCT (E).”
# For vitiligo skin biopsies, after verification of the absence of melanocytes with Wood's lamp, two or three 6 mm biopsies composed of dermis plus epidermis were taken into lesional skin from vitiligo patients (n=9). The biopsies are rapidly put on transwell chamber of 0.4 μm (Becton Dickinson) and kept on semi liquid culture conditions in “Skin long term culture medium” (Biopredic). The skin was maintained at 37° C. in a wet 5% CO2 atmosphere.
# The culture medium supplemented with Forskolin (Sigma Aldrich), LiCl (Sigma Aldrich), CHIR99021 (Calbiochem) or SKL2001 (Calbiochem) was changed […] during 14 days.
# mRNA from melanocytes and keratinocytes was extracted with RNeasy kit (Qiagen). The biopsies are cut and disrupted with tissue ruptor (Qiagen) and the mRNA was extracted with RNeasy kit (Qiagen). cDNA were synthesized from 300 ng to 1 μg of mRNA with the Reverse Transcription System (Promega). Relative quantification of gene expression was measured by real time qPCR with Sybr green reagent (Life technology) on Step one system.
# In order to induce the differentiation of melanocyte stem cells, they pharmacologically activated the WNT pathway in vitiligo skin cultured ex vivo as shown previously. They used two methods to activate the WNT pathway: a WNT agonist (SKL2001) and two GSK3β inhibitors: lithium chloride (LiCl) and a commercial specific inhibitor (CHIR99021). They biopsied 9 vitiligo subjects (6 mm punch) on diverse body locations ([…], 2 on trunk, 2 on leg, 1 on arm and 1 on axilla) and treated the ex vivo culture model during 14 days with a systemic stimulation every other day with the WNT activators.
# They evaluated the activation of WNT pathway by the mRNA level of WNTs (TCF/LEF1 and the melanogenesis pathway by the mRNA level of MITF, DCT, PAX3 and BRn2) within the skin. Treatments with LiCl, CHIR99021 and SKL2001 induce an increase of all WNT and LEF after 14 days of stimulation (FIG. 6A and FIG. 11).
# [2] = test system: NHM (melanocytes); test: Oxidative stress (H2O2) in NHM, qPCR of LEF1 and WNT family; details: 24 hours
# Description: (§2) NHM (A) and NHK (B) and whole skin in ex vivo culture (C) were stimulated 24 hours with 25 to 100 μM of H2O2. After mRNA extraction, a reverse transcription was performed and the relative gene expression of LEF1 was analyzed with qPCR.
# (§3) (A) NHM, (B) NHK and (C) whole skin in ex vivo culture were stimulated 24 hours with 25 to 100 μM of H2O2. After mRNA extraction, a reverse transcription was performed and the relative gene expression of WNT family was analyzed with qPCR.
# (§4) NHMs and NHKs are obtained from the foreskin of phototype IV children as described previously. Briefly, epidermal cells are obtained by overnight digestion of the skin in a dispase solution (Roche) at 4° C. followed by the digestion of the epidermis in a trypsin/EDTA solution during 20 minutes at 37° C. […]
# (§5) mRNA from melanocytes and keratinocytes was extracted with RNeasy kit (Qiagen). […] Relative quantification of gene expression was measured by real time qPCR with Sybr green reagent (Life technology) on Step one system.
# (§6) Since the WNT pathway, implicated in melanocytes differentiation, seems to be affected in vitiligo skin, inventors tried to determine the element—known to be involved in vitiligo—responsible for this dysregulation. […] They induced an oxidative stress with H2O2 in melanocytes and keratinocytes and analyzed the expression of LEF and WNT family. […]
# [3] = test system: whole skin in ex vivo culture; test: Oxidative stress (H2O2) in whole skin in ex vivo culture, qPCR of LEF1 and WNT family; details: whole skin biopsies ex vivo, 24 hours, 25 to 100 μM H2O2
# Description: as §2, §3
# Skin from abdominoplasty surgery was used to the development of the ex vivo skin culture model. The subcutaneous fat was removed and biopsies of 6 mm were done in the skin composed of dermis and epidermis.
# as §5, §6
# [4] = test system: NHK (keratinocytes); test: Oxidative stress (H2O2) in NHK, qPCR of LEF1 and WNT family; details: 24 hours
# Description: as §2, §3, §4, §5, §6
# [5] = 25 to 100 μM H2O2, majority of WNT
Compound,mRNA level of early melanoblast marker Brn2 [1],mRNA level of early melanoblast marker PAX3 [1],relative mRNA expression of LEF [1],relative mRNA expression of WNT family [1],expression of LEF ([2]; 25 to 100 μM H2O2),"expression of WNT family [2, 5]",expression of LEF [3],expression of WNT family ([3]; most of the WNT family),expression of LEF ([4]; 25 to 100 μM H2O2),"expression of WNT family [4, 5]",mRNA level of MITF [1]
Cc1c[nH]c(-c2cnc(NCCNc3ccc(C#N)cn3)nc2-c2ccc(Cl)cc2Cl)n1 [CHIR99021],up-regulated,up-regulated,increase,increase,–,–,–,–,–,–,–
OO [H2O2],–,–,–,–,decreased,decreased,decrease expression,decrease expression,decreased,decreased,–
O=C(NCCCn1ccnc1)c1cc(-c2ccco2)on1 [SKL2001],up-regulated,up-regulated,increase,increase,–,–,–,–,–,–,increased
